Test results from patent EP0359454B1, “CC-1065 analogs having two CPI subunits” (PHARMACIA & UPJOHN COMPANY, priority 1988, dated 1990).
Values after ≈ are worked out from the molar mass of the structure shown.

Experiments:
[1] = in vitro and in vivo, depending upon the particular test system; cited from earlier work
Lewis Lung i.v. = Lewis Lung i.v. tumor, i.v. dose on days 1,5,9; assay type: in vivo, murine; conditions: for OD (optimum dose): i.v. dose on days 1,5,9; for T/C: i.v. dose on days 1,5,9, at optimum dose
Description: (§1) Table 3 presents data comparing [S-(R*,R*)]-6,6′-[carbonylbis(imino-1H-indole-5,2-dicarbonyl)]bis[8-chloromethyl)-3,6,7,8-tetrahydro-1-methyl-benzo[1,2-b:4,3-b′]dipyrrol-4-ol (Compound 1) with (7bR)-N-[2-[(4,5,8,8a-tetrahydro-7-methyl-4-oxocyclopropa-[C]pyrrolo[3,2-e]indol-2(1H)0yl)carbonyl]-1H-indol-5-yl]-2-benzofurancarboxamide (U-73,975) in the other murine systems where the compounds have been run jointly.
(§2) T/C refers to median life span of treated mice divided by median life span of control mice times 100.

B-16 i.p. = B-16 i.p. tumor, i.v. dose on day 1; assay type: in vivo, murine; conditions: for OD (optimum dose): i.v. dose on day 1; for T/C: i.v. dose on day 1, at optimum dose
Description: The compounds of Formula I are particularly useful as antitumor agents. […] These murine test systems are predictive for clinically useful human antitumor agents (see, for examle, A. Geldin et al, European J. Cancer, Vol. 17, pp 129-142, 1981; J.M. Vendetti, Cancer Treatment Reports, Vol. 67, pp. 767-772, 1983; and J.M. Vendetti et al, Advances in Pharmacology and Chemotherapy, Vol. 20, pp. 1-20, 1984), and, therefore, the compounds of the subject invention (Formula I) will be useful in the control and treatment of susceptible neoplastic (cancer) diseases, including susceptible leukemics, in humans when given, for example, intravenously in doses of 0.001 µg/kg to about 10 mg/kg of body weight per day, the exact dose depending on the age, weight, and condition of the patient, and on the frequency of administration.
as §1, §2

[2] = Delayed death in animals without tumor; assay type: in vivo, murine; conditions: NO TUMOR
Description: as §1

L-1210 Leukemia = test: L-1210 leukemia in vivo, IV drug vs IP tumor, dosed on day 1; parameters: species or system Male BDF1 mice; conditions: for OD (optimum dose): i.v. dose on day 1
Description: as §1
(§3) The results set forth in Tables 1 and 4 were obtained using standard well known procedures (In Vivo Cancer, Models, NIH Publication No. 84-2635, 1984).
as §2

L-1210 i.p. = L-1210 i.p. tumor, i.p. dose on days 1,5,9; assay type: in vivo, murine; conditions: for OD (optimum dose): i.p. dose on days 1,5,9; for cures: i.p. dose on days 1,5,9, at optimum dose, survival 30 days = cured
Description: as §1, §3, §2

L-1210 sc = L-1210 sc tumor, i.p. dose on day 1; assay type: in vivo, murine; conditions: for OD (optimum dose) / cures: L-1210 sc; for OD (optimum dose): i.p. dose 1 on day 1; for cures: i.p. dose 1 on day 1, at optimum dose, survival 30 days = cured
Description: as §1, §3, §2

L1210 leukemia cells = test: In vitro L1210 cell growth inhibition; assay type: cell-based, murine; conditions: Mus musculus, concentration of drug which inhibits cell growth 50%, read-out: ID50 (the source's name)
Description: as §1

SMILES	factor by which less potent than CC-1065 [1]	OD (optimum dose) (Lewis Lung i.v.) [mg/kg]	T/C (Lewis Lung i.v.)	OD (optimum dose) (B-16 i.p.) [mg/kg]	T/C (B-16 i.p.)	Delayed death [2]	Delayed death ([2]; listed as U-73-975)	Best T/C (L-1210 Leukemia; IV drug vs IP tumor, dosed on day 1, T/C = median survival treated/control x 100, each value at the dose (1-600 µg/kg))	OD (optimum dose) (L-1210 Leukemia; L-1210 i.p.) [mg/kg]	Best T/C (L-1210 Leukemia; L-1210 i.p., i.v. dose on day 1, at optimum dose)	OD (optimum dose) (L-1210 i.p.) [mg/kg]	cures (L-1210 i.p.)	OD (optimum dose) (L-1210 sc) [mg/kg]	cures (L-1210 sc)	IC50 (L1210 leukemia cells) [ng/mL]	Delayed death ([2]; listed as Cpd 1)	cures (L-1210 Leukemia; IV drug vs IP tumor, dosed on day 1, animals surviving 30 days are considered cured, at the dose (µg/kg))	cures (L-1210 Leukemia; L-1210 i.p., i.v. dose on day 1, at optimum dose, animals which survive 30 days are considered cured)	In vivo L1210 activity (in words) (L-1210 Leukemia; at 15 µg/kg)	Activity compared with U-73,975 (in words) (L-1210 sc; subcutaneous L1210 assay, over several dose ranges)
COc1c(O)c2c(c3cc(C(=O)N4CCc5c4c(O)c(OC)c4[nH]c(C(=O)N6CC(COC(C)=O)c7c6cc(O)c6[nH]cc(C)c76)cc54)[nH]c13)CCN2C(N)=O (stereo not drawn) [AAP, 7-[[7-[[1-[(acetyloxy)methyl]-1,6-dihydro-5-hydroxy-8-methylbenzo[1,2-b:4,3-b′]dipyrrol-3(2H)-yl]carbonyl]-1,6-dihydro-4-hydroxy-5-methoxybenzo[1,2:4,3-b′]-dipyrrol-3(2H)-yl]carbonyl]-1,6-dihydro-4-hydroxy-5-methoxy-benzo[1,2-b:4,3-b′]dipyrrole-3(2H)-carboxamide]	10^3 to 10^4	–	–	–	–	–	–	–	–	–	–	–	–	–	–	–	–	–	–	–
Cc1c[nH]c2c1[C@@]13C[C@@H]1CN(C(=O)c1cc4cc(NC(=O)c5cc6ccccc6o5)ccc4[nH]1)C3=CC2=O [U-73,975, (7bR)-N-[2-[(4,5,8,8a-tetrahydro-7-methyl-4-oxocyclopropa-[C]pyrrolo[3,2-e]indol-2(1H)0yl)carbonyl]-1H-indol-5-yl]-2-benzofurancarboxamide, reference compound]	–	0.025	147	0.1	160	not to cause delayed death	No Delayed Death	213	0.1	213	0.02	(4/6)	0.1	(4/6)	–	–	–	–	–	–
Cc1c[nH]c2c(O)cc3c(c12)[C@H](CCl)CN3C(=O)c1cc2cc(NC(=O)Nc3ccc4[nH]c(C(=O)N5C[C@@H](CCl)c6c5cc(O)c5[nH]cc(C)c65)cc4c3)ccc2[nH]1 [Compound 1, [S-(R*,R*)]-6,6′-[carbonylbis(imino-1H-indole-5,2-dicarbonyl)]bis[8-chloromethyl)-3,6,7,8-tetrahydro-1-methylbenzo[1,2-b:4,3-b′]dipyrrol-4-ol]	–	0.004	168	0.015	167	not to cause delayed death	–	–	0.01 to 0.015	–	0.004	(3/6)	0.01 to 0.025	(6/6)	0.001 (≈ 0.00123 nM)	No Delayed Death	4/6 cures	(4/6)	highly curative	superior activity
